Data from paper PMC7036753, “Lipidated Analogs of the LL-37-Derived Peptide Fragment KR12—Structural Analysis, Surface-Active Properties and Antimicrobial Activity” (International Journal of Molecular Sciences, 2020).
In brackets after ≈: the same amount, converted by molar mass. Peptide text beside a SMILES is read from it. * marks the point of attachment. Lauroyl = CCCCCCCCCCCC(=O)*; Decanoyl = CCCCCCCCCC(=O)*; Hexanoyl = CCCCCC(=O)*; Butyryl = CCCC(=O)*

Assays:
[1] = system: S. aureus ATCC 33591 (MRSA); assay type: cell-based, Staphylococcus aureus; settings: ATCC 33591, 18 h
Method: (§1) Examination of antimicrobial activity of the test compounds was conducted on reference strains of bacteria assigned to ESKAPE group of pathogens: Enterococcus faecium ATCC 700221, Klebsiella pneumoniae ATCC 700603, Acinetobacter baumannii ATCC BAA-1605, Pseudomonas aeruginosa ATCC 9027, Klebsiella aerogenes ATCC 13048 (formerly Enterobacter aerogenes) and reference strains of Staphylococcus aureus, namely: S. aureus ATCC 25923, S. aureus ATCC 6538, S. aureus ATCC 33591 (MRSA), S. aureus ATCC 9144 and S. aureus ATCC 12598. All the strains were stored at −80 °C in Roti®-Store cryo vials (Carl Roth GmbH, Karlsruhe, Germany) and before the tests were transferred into fresh Mueller-Hinton Medium (BioMaxima, Lublin, Poland) and incubated for 24 h at 37 °C. Subsequently, each bacterial inoculum was seeded on Mueller-Hinton Agar plates (BioMaxima) and incubated again for 24 h. The cultures prepared in this way were used in further antimicrobial assays and prepared as described above. The MIC values were determined by the broth microdilution method according to Clinical and Laboratory Standards Institute Protocol. For this purpose, initial inoculums of bacteria (0.5 × 10^5 colony forming unit (CFU)/mL) in Mueller–Hinton Broth were exposed to the ranging concentrations of compounds (0.5–256 µg/mL) and incubated for 18 h at 37 °C. The experiments were conducted on 96-well microtiter plates, with a final volume of 100 µL. Cell densities were adjusted spectrophotometrically (Multiskan™ GO Microplate Spectrophotometer, Thermo Scientific) at 600 nm. The MICs were taken as the lowest drug concentration at which a visible growth of microorganisms was inhibited. All experiments were conducted in triplicate and included positive (growth) and negative (sterility) controls.

S. aureus ATCC 6538 = assay type: cell-based, Staphylococcus aureus; settings: ATCC 6538, 18 h
Method: as §1

S. aureus ATCC 25923 = assay type: cell-based, Staphylococcus aureus; settings: ATCC 25923, 18 h
Method: as §1

S. aureus ATCC 9144 = assay type: cell-based, Staphylococcus aureus; settings: ATCC 9144, 18 h
Method: as §1

S. aureus ATCC 12598 = assay type: cell-based, Staphylococcus aureus; settings: ATCC 12598, 18 h
Method: as §1

[2] = system: S. aureus ATCC 25923 biofilm; assay type: cell-based, Staphylococcus aureus; settings: ATCC 25923, 24 h
Method: (§2) The MBECs values were determined according to the method reported previously. Briefly, 24-h cultures of S. aureus, namely: S. aureus ATCC 25923, S. aureus ATCC 6538, S. aureus ATCC 33591 (MRSA), S. aureus ATCC 9144 and S. aureus ATCC 12598 were diluted to a concentration of 0.5 × 10^7 CFU/mL and added to the test wells of polystyrene microdilution flat-bottom plates. After 24-h of incubation at 37 °C, the wells were rinsed three times with PBS to remove non-adherent cells. Subsequently, 100 μL of the test compounds over a concentration range 0.5–256 µg/mL were added to each well and incubated again for 24 h at 37 °C. After this period, 20 μL of the resazurin (7-hydroxy-3H-phenoxazin-3-one-10-oxide, 4 mg/mL) solution was added to each well. After 1 h of incubation, the MBECs were read out. The determined values were recorded as the lowest concentration at which the reduction of resazurin (from blue to pink) was lower or equal to 10 ± 0.5% as compared to the positive (100%) and negative (0%) controls. All experiments were performed in triplicate.

[3] = system: S. aureus ATCC 9144 biofilm; assay type: cell-based, Staphylococcus aureus; settings: ATCC 9144, 24 h
Method: as §2

[4] = system: S. aureus ATCC 12598 biofilm; assay type: cell-based, Staphylococcus aureus; settings: ATCC 12598, 24 h
Method: as §2

[5] = system: S. aureus ATCC 6538 biofilm; assay type: cell-based, Staphylococcus aureus; settings: ATCC 6538, 24 h
Method: as §2

[6] = system: S. aureus ATCC 33591 (MRSA) biofilm; assay type: cell-based, Staphylococcus aureus; settings: ATCC 33591, 24 h
Method: as §2

[7] = system: reference strains of S. aureus; assay type: cell-based, Staphylococcus aureus; settings: reference strains of, 24 h
Method: as §1, with “For this purpose, initial inoculums of bacteria (0.5 × 10^5 colony forming unit (CFU)/mL) in Mueller–Hinton Broth were exposed to the ranging concentrations of compounds (0.5–256 µg/mL) and incubated for 18 h at 37 °C.” left out

[8] = system: human keratinocytes (HaCaT); assay type: cell-based; settings: 24 h
Method: The cytotoxicity of test compounds (IC50) was evaluated for human keratinocytes (HaCaT, ATCC) using classic MTT assay on 96-well plates. In this assay, a colorimetric determination of the cell metabolic activity was carried out. Specifically, the color intensity reflects the number of live cells that can be measured spectrophotometrically. […] A day after plating 500 cells per well, a series of concentrations (0.5–500 μg/mL) of the test compounds were added. Dimethyl sulfoxide (DMSO) was used as a control in cells at a final concentration of 1.0% (v/v), which was related to the maximal concentration of the solvent compounds used in the experiment. After 24 h of incubation with test compounds, a medium containing 1 mg/mL of MTT was added up to a final concentration of 0.5 mg/mL and subsequently incubated at 37 °C for 4 h. Then, the medium was aspirated and the formazan product was solubilized with DMSO. The background absorbance at 630 nm was subtracted from that at 570 nm for each well (Epoch, BioTek Instruments, Winooski, VT, USA). Six replicates were conducted for each concentration. All experiments were repeated at least twice and the resulting IC50 values were calculated with a GraFit 7 software (v. 7.0, Erithacus, Berkley, CA, USA).

P. aeruginosa ATCC 9027 = assay type: cell-based, Pseudomonas aeruginosa; settings: ATCC 9027, 18 h
Method: as §1

E. faecium ATCC 700221 = assay type: cell-based, Enterococcus faecium; settings: ATCC 700221, 18 h
Method: as §1

[9] = system: A. baumannii ATCC BAA-1605; assay type: cell-based, Acinetobacter baumannii; settings: ATCC BAA-1605, 18 h
Method: as §1

[10] = system: K. pneumoniae ATCC 700603; assay type: cell-based, Klebsiella pneumoniae; settings: ATCC 700603, 18 h
Method: as §1

K. aerogenes ATCC 13048 = assay type: cell-based, Klebsiella aerogenes; settings: ATCC 13048, 18 h
Method: as §1

MIC [1] | MIC (S. aureus ATCC 6538) | MIC (S. aureus ATCC 25923) | MIC (S. aureus ATCC 9144) | MIC (S. aureus ATCC 12598) | GM (geometric mean of the MIC values against S. aureus) [7] | MIC (P. aeruginosa ATCC 9027) | MIC (E. faecium ATCC 700221) | MIC [9] | MIC [10] | MIC (K. aerogenes ATCC 13048) | SMILES | MBEC [2] | MBEC [3] | MBEC [4] | MBEC [5] | MBEC [6] | IC50 [8]
128 µg/mL (≈ 78 µM) | 32 µg/mL (≈ 19.5 µM) | 128 µg/mL (≈ 78 µM) | 64 µg/mL (≈ 39 µM) | 64 µg/mL (≈ 39 µM) | 73.52 µg/mL | 32 µg/mL (≈ 19.5 µM) | 4 µg/mL (≈ 2.44 µM) | >256 µg/mL | 128 µg/mL (≈ 78 µM) | 128 µg/mL (≈ 78 µM) | CCCC(=O)N[C@@H](CCCCN)C(=O)N[C@@H](CCCNC(=N)N)C(=O)N[C@H](C(=O)N[C@H](C(=O)N[C@@H](CCC(N)=O)C(=O)N[C@@H](CCCNC(=N)N)C(=O)N[C@H](C(=O)N[C@@H](CCCCN)C(=O)N[C@@H](CC(=O)O)C(=O)N[C@@H](Cc1ccccc1)C(=O)N[C@@H](CC(C)C)C(=O)N[C@@H](CCCNC(=N)N)C(N)=O)[C@@H](C)CC)C(C)C)[C@@H](C)CC [II, C4-KR12-NH2] (Butyryl-KRIVQRIKDFLR-NH2) | 256 µg/mL | 128 µg/mL | 128 µg/mL | 128 µg/mL | 128 µg/mL | 38.73 µg/mL (≈ 23.6 µM)
16 µg/mL (≈ 9.59 µM) | 4 µg/mL (≈ 2.4 µM) | 16 µg/mL (≈ 9.59 µM) | 8 µg/mL (≈ 4.79 µM) | 8 µg/mL (≈ 4.79 µM) | 9.19 µg/mL | 8 µg/mL (≈ 4.79 µM) | 2 µg/mL (≈ 1.2 µM) | 16 µg/mL (≈ 9.59 µM) | 16 µg/mL (≈ 9.59 µM) | 16 µg/mL (≈ 9.59 µM) | CCCCCC(=O)N[C@@H](CCCCN)C(=O)N[C@@H](CCCNC(=N)N)C(=O)N[C@H](C(=O)N[C@H](C(=O)N[C@@H](CCC(N)=O)C(=O)N[C@@H](CCCNC(=N)N)C(=O)N[C@H](C(=O)N[C@@H](CCCCN)C(=O)N[C@@H](CC(=O)O)C(=O)N[C@@H](Cc1ccccc1)C(=O)N[C@@H](CC(C)C)C(=O)N[C@@H](CCCNC(=N)N)C(N)=O)[C@@H](C)CC)C(C)C)[C@@H](C)CC [III, C6-KR12-NH2] (Hexanoyl-KRIVQRIKDFLR-NH2) | 32 µg/mL | 16 µg/mL | 16 µg/mL | 16 µg/mL | 16 µg/mL | 10.13 µg/mL (≈ 6.07 µM)
4 µg/mL (≈ 2.32 µM) | 4 µg/mL (≈ 2.32 µM) | 4 µg/mL (≈ 2.32 µM) | 4 µg/mL (≈ 2.32 µM) | 4 µg/mL (≈ 2.32 µM) | 4.00 µg/mL | 8 µg/mL (≈ 4.64 µM) | 2 µg/mL (≈ 1.16 µM) | 8 µg/mL (≈ 4.64 µM) | 16 µg/mL (≈ 9.27 µM) | 16 µg/mL (≈ 9.27 µM) | CCCCCCCCCC(=O)N[C@@H](CCCCN)C(=O)N[C@@H](CCCNC(=N)N)C(=O)N[C@H](C(=O)N[C@H](C(=O)N[C@@H](CCC(N)=O)C(=O)N[C@@H](CCCNC(=N)N)C(=O)N[C@H](C(=O)N[C@@H](CCCCN)C(=O)N[C@@H](CC(=O)O)C(=O)N[C@@H](Cc1ccccc1)C(=O)N[C@@H](CC(C)C)C(=O)N[C@@H](CCCNC(=N)N)C(N)=O)[C@@H](C)CC)C(C)C)[C@@H](C)CC [V, C10-KR12-NH2] (Decanoyl-KRIVQRIKDFLR-NH2) | 32 µg/mL | 16 µg/mL | 8 µg/mL | 32 µg/mL | 32 µg/mL | 5.97 µg/mL (≈ 3.46 µM)
16 µg/mL (≈ 9.13 µM) | 32 µg/mL (≈ 18.3 µM) | 32 µg/mL (≈ 18.3 µM) | 32 µg/mL (≈ 18.3 µM) | 32 µg/mL (≈ 18.3 µM) | 27.86 µg/mL | 32 µg/mL (≈ 18.3 µM) | 4 µg/mL (≈ 2.28 µM) | 16 µg/mL (≈ 9.13 µM) | 32 µg/mL (≈ 18.3 µM) | 32 µg/mL (≈ 18.3 µM) | CCCCCCCCCCCC(=O)N[C@@H](CCCCN)C(=O)N[C@@H](CCCNC(=N)N)C(=O)N[C@H](C(=O)N[C@H](C(=O)N[C@@H](CCC(N)=O)C(=O)N[C@@H](CCCNC(=N)N)C(=O)N[C@H](C(=O)N[C@@H](CCCCN)C(=O)N[C@@H](CC(=O)O)C(=O)N[C@@H](Cc1ccccc1)C(=O)N[C@@H](CC(C)C)C(=O)N[C@@H](CCCNC(=N)N)C(N)=O)[C@@H](C)CC)C(C)C)[C@@H](C)CC [VI, C12-KR12-NH2] (Lauroyl-KRIVQRIKDFLR-NH2) | 256 µg/mL | 64 µg/mL | 32 µg/mL | 256 µg/mL | 128 µg/mL | 7.60 µg/mL (≈ 4.33 µM)
